In brackets after ≈: the same amount, converted by molar mass. Read-outs that look alike come from different tables or passages of the source.
Key:
[1] = tested on: A375; test: 48 h Cytotoxicity A375; assay type: cell-based; settings: Homo sapiens, A-375
[2] = Aqueous Solubility in pION's buffer; assay type: physicochemical
[3] = PAMPA Permeability; assay type: in vitro ADME
[4] = Hepatic Microsome Stability Human; assay type: in vitro ADME
[5] = tested on: UACC903 (BRAF mutant) cell line; test: Reverse phase protein array analysis (RPPA), UACC903; assay type: cell-based, human; settings: UACC903, 1 μM, 24 h
Experimental: UACC903 and WM1346 cells were treated with DMSO (controls) or 1 μM Compound 38 for 24 h in triplicate. Cells were lysed with lysis buffer (1% Triton X-100, 50 mM HEPES, pH 7.4, 150 mM NaCl, 1.5 mM MgCl2, 1 mM EGTA, 100 mM NaF, 10 mM Na pyrophosphate, 1 mM Na3VO4, 10% glycerol, with freshly added protease and phosphatase inhibitors) and centrifuged at 13,000 g for 20 minutes. Denatured protein lysates containing the same amount of protein were then subjected to RPPA analysis at the RPPA Core Facility, Md. Anderson Cancer Center, as previously described (Tibes. R., et al. Reverse phase protein array: validation of a novel proteomic technology and utility for analysis of primary leukemia specimens and hematopoietic stem cells. Molecular cancer therapeutics 5, 2512-2521 (2006)),
A reverse phase protein array (RPPA) analysis of BRAF- and NRAS-mutant melanomas was performed to identify protein networks affected by Compound 38 (Table 4).

[6] = target: T1, eIF4F complex (Homo sapiens, UniProt Q04637); test: m7GTP pull-down assay, BRAFi-sensitive and -resistant melanoma cells; assay type: cell-based
T1 construct: PLX4032), or Compound 38; endogenous in cells; host or cells: A375, A375R, Lu1205R, WM793R melanoma cells
Experimental: As previously described (Dowling R J, et al. mTORC1-mediated cell proliferation, but not cell growth, controlled by the 4E-BPs. Science. 2010; 328:1172-6), cells growing in 100 mm plates were washed (cold PBS), collected, and lysed in 50 mM MOPS/KOH (7.4), 100 mM NaCl, 50 mM NaF, 2 mM EDTA, 2 mM EGTA, 1% NP40, 1% Na-DOC, 7 mM β-mercaptoethanol, protease inhibitors and phosphatase inhibitor cocktail (Roche). Lysates were incubated with m7-GDP-agarose beads (Jena Bioscience) for 20 minutes, washed 4 times with the washing buffer containing 50 mM MOPS/KOH (7.4), 100 mM NaCl, 50 mM NaF, 0.5 mM EDTA, 0.5 mM EGTA, 7 mM (3-mercaptoethanol, 0.5 mM PMSF, 1 mM Na3VO4 and 0.1 mM GTP, and bound proteins were eluted by boiling the beads in loading buffer. m7-GDP-agarose pulled down material was analyzed by Western blot analysis.
As levels of the eIF4F complex inversely correlate with the effectiveness of various cancer therapies, the integrity of the eIF4F complex after treating melanoma cells with a combination of BRAFi vemurafenib (PLX4032) and Compound 38 was assessed. […] A375 and A375R (PLX4032-resistant) cells were treated with vehicle (DMSO), a BRAFi (vemurafenib; PLX4032), or Compound 38 at the indicated doses for 24 hours. Cell lysates ([…]) were subjected to m^7GTP pull-down. Amounts of the indicated proteins in input (5%) or pull-down (50%) samples were determined by Western blotting; 3-actin served as a loading control (input) and to exclude contamination (m^7GTP pull-down).

[7] = tested on: parental and BRAFi-resistant melanoma cultures (A375, WM793, Lu1205); test: 2D growth and colony-forming efficiency in parental and BRAFi-resistant melanoma cultures; assay type: cell-based, human; settings: parental (sensitive) and BRAFi-resistant cultures
Experimental: For the colony formation assay, cells were plated in triplicate at 500 cells/well in 6-well plates and grown for 16 h before compounds were added for 1-2 weeks, depending on cell line. Colonies were stained with Accustain Crystal Violet solution (Sigma-Aldrich) for 30 min. Plates were rinsed with water, and colonies (>50 cells per clone) were counted. Colony formation efficiency was calculated relative to the number of colonies in control (DMSO)-treated wells. For soft agar assays, melanoma cells were mixed with agar at a final concentration of 0.35% and layered on top of 0.7% agar in 6-well plates. Media supplemented with different compounds was added to plates and changed once per week. After 4 weeks, colonies were counted in 10 random high-power fields.
To confirm the effect of Compound 38 on the eIF4F complex in BRAFi resistant cultures on neoplastic growth, Compound 38 effectiveness on their two-dimensional (2D) growth in vitro was assessed. […] Parental and BRAFi-resistant NF1-mutant melanomas (A) were monitored for their response to Compound 38 at the indicated concentrations and for their ability to form CFE (B) (A375: FIG. 16A and FIG. 16B, WM793: FIG. 17A and FIG. 17B, Lu1205: FIG. 18A and FIG. 18B). Effectiveness of Compound 38 in NF1-mutant melanoma was further confirmed in primary cultures (FIG. 19A and FIG. 19B).

O=C(/C=C/c1cncc(F)c1)c1c(-c2ccccc2)c2cc(Cl)ccc2[nH]c1=O [Compound 38, 6-Chloro-3-[3-(5-fluoro-pyridin-3-yl)-acryloyl]-4-phenyl-1H-quinolin-2-one]
IC50 [1]: < 2000 nM
solubility ([2]; aqueous buffer, pH 5.0, read-out: Aqueous Solubility in pION's buffer pH 5.0): 6.5 µg/mL (≈ 16.1 µM)
solubility ([2]; pH 6.2, aqueous buffer, read-out: Aqueous Solubility in pION's buffer pH 6.2): 6.6 µg/mL (≈ 16.3 µM)
solubility ([2]; pH 7.4, aqueous buffer, read-out: Aqueous Solubility in pION's buffer pH 7.4): 5.5 µg/mL (≈ 13.6 µM)
Papp ([3]; Donor pH 5.0, Acceptor pH 7.4, read-out: PAMPA Permeability, Pe, Donor pH 5.0): 1110 ×10⁻⁶ cm/s
Papp ([3]; Donor pH 6.2, Acceptor pH 7.4, read-out: PAMPA Permeability, Pe, Donor pH 6.2): 1150 ×10⁻⁶ cm/s
Papp ([3]; pH 7.4, Donor pH 7.4, Acceptor pH 7.4, read-out: PAMPA Permeability, Pe, Donor pH 7.4): 820 ×10⁻⁶ cm/s
Hepatic Microsome Stability (% Remaining at 1 hr) Human [4]: 24.12 % Remaining
Hepatic Microsome Stability (% Remaining at 1 hr) Human (no NADPH) ([4]; no NADPH): 57.84 % Remaining
Ratio [Compound 38/DMSO] A-Raf [5]: 0.91
Ratio [Compound 38/DMSO] AR [5]: 0.92
Ratio [Compound 38/DMSO] ATM [5]: 0.79
Ratio [Compound 38/DMSO] ATR [5]: 0.84
Ratio [Compound 38/DMSO] BRCA2 [5]: 0.96
Ratio [Compound 38/DMSO] C-Raf [5]: 0.92
Ratio [Compound 38/DMSO] Chk1 [5]: 0.89
Ratio [Compound 38/DMSO] Ets-1 [5]: 0.92
Ratio [Compound 38/DMSO] GCN5L2 [5]: 0.88
Ratio [Compound 38/DMSO] INPP4b [5]: 0.93
Ratio [Compound 38/DMSO] MSH6 [5]: 0.76
Ratio [Compound 38/DMSO] PI3K-p85 [5]: 0.93
Ratio [Compound 38/DMSO] PI3K-p110-alpha [5]: 0.94
Ratio [Compound 38/DMSO] Rad51 [5]: 0.93
Ratio [Compound 38/DMSO] Raptor [5]: 0.86
Ratio [Compound 38/DMSO] Rictor_pT1135 [5]: 0.84
Ratio [Compound 38/DMSO] S6_pS235_S236 [5]: 0.63
Ratio [Compound 38/DMSO] S6_pS240_S244 [5]: 0.61
Ratio [Compound 38/DMSO] Stat5a [5]: 0.85
Ratio [Compound 38/DMSO] Tuberin [5]: 0.62
Ratio [Compound 38/DMSO] YB1 [5]: 0.77
Ratio [Compound 38/DMSO] c-Kit [5]: 0.86
Ratio [Compound 38/DMSO] c-Myc [5]: 0.72
Ratio [Compound 38/DMSO] mTOR [5]: 0.90
Ratio [Compound 38/DMSO] mTOR_pS2448 [5]: 0.72
Ratio [Compound 38/DMSO] p70-S6K_pT389 [5]: 0.82
dissociation of eIF4G1 from eIF4E in BRAFi-resistant cells ([6]; A375R, Lu1205R and WM793R cells): significantly promoted a dose dependent dissociation of eIF4G1 from eIF4E
eIF4G1 association with eIF4E ([6]; A375 and A375R, 24 hours): more robust effect
amount of eIF4G1 bound to eIF4E, Compound 38/BRAFi combination ([6]; combination with BRAFi PLX4032, not seen following BRAFi treatment alone): decreased the amount of eIF4G1 bound to eIF4E
Growth in 2D and colony-forming efficiency (CFE) [7]: effectively attenuated in both parental (sensitive) and resistant cultures
